The source of these data is ChEMBL document CHEMBL1145159 (J Med Chem, 2005).

Several values for one entry are separate records, joined by “and”; a condition that tells them apart may be missing. Identical values can stand only once. Square brackets hold non-standard residues; d marks the D form. Peptide text beside a SMILES is read from it. Hyp = O=C(O)[C@@H]1C[C@@H](O)CN1 Some results are limits rather than exact numbers.

Experiment [1] concerns the target Neuronal acetylcholine receptor subunit alpha-7 (Rattus norvegicus) (UniProt Q05941). The experiment is described as follows: Maximal response against Nicotinic acetylcholine receptor alpha 7.
For experiment [2], the target named is T1, Neuronal acetylcholine receptor; alpha4/beta4 (Homo sapiens, UniProt P30926+P43681). The experiment is described as follows: Maximal response against Nicotinic acetylcholine receptor alpha4-beta4. Format: protein-complex assay.
Experiment [3] deals with T2, Neuronal acetylcholine receptor; alpha3/beta2 (Homo sapiens, UniProt P17787+P32297). In words: Maximal response against Nicotinic acetylcholine receptor alpha3-beta2 expressed in HEK293 cells. Format: cell-based.
Experiment [4] can be described thus: Effective concentration against Nicotinic acetylcholine receptor alpha4-beta2 expressed in xenopus oocytes. Format: cell-based. The following applies: oocyte.
A short description of experiment [5]: Effective concentration against Nicotinic acetylcholine receptor alpha4-beta4 expressed in xenopus oocytes. Format: cell-based. Conditions: oocyte.
The target of experiment [6] is T3, Neuronal acetylcholine receptor; alpha4/beta2 (Homo sapiens, UniProt P17787+P43681). The experiment is described as follows: Maximal response against Nicotinic acetylcholine receptor alpha4-beta2. Format: protein-complex assay.
Experiment [7] addresses T4, Neuronal acetylcholine receptor; alpha2/beta4 (Homo sapiens, UniProt P30926+Q15822). In words: Maximal response against Nicotinic acetylcholine receptor alpha2-beta4 expressed in HEK293 cells. Format: cell-based.
For experiment [8], the target named is T3, Neuronal acetylcholine receptor; alpha4/beta2. The experiment is described as follows: Maximal response against Nicotinic acetylcholine receptor alpha4-beta2 expressed in HEK293 cells. Format: cell-based.
Experiment [9] in a line: Effective concentration against Nicotinic acetylcholine receptor alpha2-beta4 expressed in xenopus oocytes. Format: cell-based. The following applies: oocyte.
The target of experiment [10] is T4, Neuronal acetylcholine receptor; alpha2/beta4. The experiment is described as follows: Maximal response against Nicotinic acetylcholine receptor alpha2-beta4. Format: protein-complex assay.
Experiment [11] in a line: Effective concentration against Nicotinic acetylcholine receptor alpha3-beta4 expressed in xenopus oocytes. Format: cell-based. Conditions: oocyte.
In experiment [12] the target is T5, Neuronal acetylcholine receptor subunit alpha-7 (Homo sapiens, UniProt P36544). The experiment is described as follows: Effective concentration against Nicotinic acetylcholine receptor alpha 7.
Experiment [13] addresses T1, Neuronal acetylcholine receptor; alpha4/beta4. The experiment is described as follows: Effective concentration against Nicotinic acetylcholine receptor alpha4-beta4. Format: protein-complex assay.
Experiment [14] concerns the target T6, Neuronal acetylcholine receptor; alpha3/beta4 (Homo sapiens, UniProt P30926+P32297). In words: Effective concentration against Nicotinic acetylcholine receptor alpha3-beta4. Format: protein-complex assay.
Experiment [15] deals with T3, Neuronal acetylcholine receptor; alpha4/beta2. In words: Effective concentration against Nicotinic acetylcholine receptor alpha4-beta2. Format: protein-complex assay.
For experiment [16], the target named is T4, Neuronal acetylcholine receptor; alpha2/beta4. The experiment is described as follows: Effective concentration against Nicotinic acetylcholine receptor alpha2-beta4. Format: protein-complex assay.
In experiment [17] the target is T6, Neuronal acetylcholine receptor; alpha3/beta4. The experiment is described as follows: Maximal response against Nicotinic acetylcholine receptor alpha3-beta4. Format: protein-complex assay.
The target in experiment [18] is T2, Neuronal acetylcholine receptor; alpha3/beta2. In words: Effective concentration against Nicotinic acetylcholine receptor alpha3-beta2. Format: protein-complex assay.
The target in experiment [19] is T3, Neuronal acetylcholine receptor; alpha4/beta2. In words: Inhibitory concentration against Nicotinic acetylcholine receptor alpha4-beta2; Range is 3-5 nM. Format: protein-complex assay.
Experiment [20] concerns the target T6, Neuronal acetylcholine receptor; alpha3/beta4. In words: Inhibitory concentration against Nicotinic acetylcholine receptor alpha3-beta4; Range is 3-5 nM. Format: protein-complex assay.
The target of experiment [21] is T2, Neuronal acetylcholine receptor; alpha3/beta2. In words: Inhibitory concentration against Nicotinic acetylcholine receptor alpha3-beta2; Range is 3-5 nM. Format: protein-complex assay.
Experiment [22] deals with T1, Neuronal acetylcholine receptor; alpha4/beta4. In words: Inhibitory concentration against Nicotinic acetylcholine receptor alpha4-beta4; Range is 3-5 nM. Format: protein-complex assay.
Experiment [23] deals with T5, Neuronal acetylcholine receptor subunit alpha-7. The experiment is described as follows: Inhibitory concentration against Nicotinic acetylcholine receptor alpha-7 Range is 3-5 nM.
Experiment [24] in a line: Inhibitory concentration against Nicotinic acetylcholine receptor alpha3-beta4 expressed in xenopus oocytes. The following applies: oocyte. Format: cell-based.
For experiment [25], the target named is T1, Neuronal acetylcholine receptor; alpha4/beta4. The experiment is described as follows: Ki or IC50 concentration against Nicotinic acetylcholine receptor alpha4-beta4 expressed in xenopus oocytes. Format: cell-based. The following applies: Oocyte.
Experiment [26] has as its target T3, Neuronal acetylcholine receptor; alpha4/beta2. The experiment is described as follows: Inhibitory concentration against Nicotinic acetylcholine receptor alpha4-beta2. Format: protein-complex assay.
Experiment [27] can be described thus: Inhibitory concentration against Nicotinic acetylcholine receptor alpha2-beta4 expressed in xenopus oocytes. Format: cell-based. Conditions: oocyte.
For experiment [28], the target named is T6, Neuronal acetylcholine receptor; alpha3/beta4. In words: Inhibitory concentration against Nicotinic acetylcholine receptor alpha3-beta4. Format: protein-complex assay.
For experiment [29], the target named is T3, Neuronal acetylcholine receptor; alpha4/beta2. The experiment is described as follows: Ki or IC50 concentration against Nicotinic acetylcholine receptor alpha4-beta2 expressed in xenopus oocytes. Format: cell-based. Conditions: Oocyte.
The target of experiment [30] is T5, Neuronal acetylcholine receptor subunit alpha-7. In words: Inhibitory concentration against Nicotinic acetylcholine receptor alpha 7.
The target is the same in experiment [31]. The experiment is described as follows: Inhibitory concentration against Nicotinic acetylcholine receptor alpha-7 expressed in xenopus oocytes. Format: cell-based. Conditions: xenopus oocyte.
Experiment [32] has as its target T4, Neuronal acetylcholine receptor; alpha2/beta4. In words: Inhibitory concentration against Nicotinic acetylcholine receptor alpha2-beta4. Format: protein-complex assay.
Experiment [33] concerns the target T2, Neuronal acetylcholine receptor; alpha3/beta2. In words: Inhibitory concentration against Nicotinic acetylcholine receptor alpha3-beta2. Format: protein-complex assay.
For experiment [34] the target is unchanged. The experiment is described as follows: Inhibitory concentration against Nicotinic acetylcholine receptor alpha3-beta2 expressed in xenopus oocytes. Format: cell-based, Oocyte.
The target in experiment [35] is T1, Neuronal acetylcholine receptor; alpha4/beta4. In words: Inhibitory concentration against Nicotinic acetylcholine receptor alpha4-beta4; Range is 0.3-1.5 nM. Format: protein-complex assay.
Experiment [36] concerns the target T5, Neuronal acetylcholine receptor subunit alpha-7. The experiment is described as follows: Inhibitory concentration against Nicotinic acetylcholine receptor alpha7; Range is 0.3-1.5 nM.
The target in experiment [37] is T3, Neuronal acetylcholine receptor; alpha4/beta2. The experiment is described as follows: Inhibitory concentration against Nicotinic acetylcholine receptor alpha4-beta2; Range is 0.3-1.5 nM. Format: protein-complex assay.
Experiment [38] addresses Neuronal acetylcholine receptor; alpha2/beta2 (Homo sapiens, UniProt P17787+Q15822). In words: Inhibitory concentration against Nicotinic acetylcholine receptor alpha2-beta2; Range is 0.3-1.5 nM. Format: protein-complex assay.
Experiment [39] concerns the target T2, Neuronal acetylcholine receptor; alpha3/beta2. In words: Inhibitory concentration against Nicotinic acetylcholine receptor alpha3-beta2; Range is 0.3-1.5 nM. Format: protein-complex assay.
The target of experiment [40] is T4, Neuronal acetylcholine receptor; alpha2/beta4. The experiment is described as follows: Inhibitory concentration against Nicotinic acetylcholine receptor alpha2-beta4; Range is 0.3-1.5 nM. Format: protein-complex assay.

T5 sequence (P36544 whole entry): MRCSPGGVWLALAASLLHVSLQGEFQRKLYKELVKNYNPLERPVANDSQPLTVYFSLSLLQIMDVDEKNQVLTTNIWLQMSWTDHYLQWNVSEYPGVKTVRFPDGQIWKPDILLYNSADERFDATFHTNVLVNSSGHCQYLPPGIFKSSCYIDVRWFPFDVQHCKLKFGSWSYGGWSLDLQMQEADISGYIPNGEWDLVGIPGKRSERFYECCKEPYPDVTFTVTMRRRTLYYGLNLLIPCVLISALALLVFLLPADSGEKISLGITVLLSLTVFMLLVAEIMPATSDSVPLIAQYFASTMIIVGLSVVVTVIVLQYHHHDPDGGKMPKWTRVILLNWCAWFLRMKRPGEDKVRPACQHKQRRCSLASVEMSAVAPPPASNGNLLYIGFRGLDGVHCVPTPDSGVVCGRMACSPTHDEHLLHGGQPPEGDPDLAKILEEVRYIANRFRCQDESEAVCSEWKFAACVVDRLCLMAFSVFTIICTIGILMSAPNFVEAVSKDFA
T3 sequence (P17787 whole entry): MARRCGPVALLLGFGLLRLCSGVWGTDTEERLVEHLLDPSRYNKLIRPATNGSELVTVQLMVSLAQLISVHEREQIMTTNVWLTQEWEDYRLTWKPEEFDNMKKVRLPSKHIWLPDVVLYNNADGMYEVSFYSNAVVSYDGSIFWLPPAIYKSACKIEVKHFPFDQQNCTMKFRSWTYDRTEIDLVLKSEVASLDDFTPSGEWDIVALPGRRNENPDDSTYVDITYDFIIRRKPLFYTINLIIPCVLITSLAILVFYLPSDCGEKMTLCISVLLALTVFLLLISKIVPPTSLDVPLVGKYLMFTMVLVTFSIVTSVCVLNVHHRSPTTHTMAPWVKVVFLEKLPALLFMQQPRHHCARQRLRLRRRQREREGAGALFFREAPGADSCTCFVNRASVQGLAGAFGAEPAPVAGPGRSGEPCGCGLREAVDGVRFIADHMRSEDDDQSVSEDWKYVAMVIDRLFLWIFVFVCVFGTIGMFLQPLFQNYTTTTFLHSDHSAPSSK
T3 sequence (P43681 whole entry): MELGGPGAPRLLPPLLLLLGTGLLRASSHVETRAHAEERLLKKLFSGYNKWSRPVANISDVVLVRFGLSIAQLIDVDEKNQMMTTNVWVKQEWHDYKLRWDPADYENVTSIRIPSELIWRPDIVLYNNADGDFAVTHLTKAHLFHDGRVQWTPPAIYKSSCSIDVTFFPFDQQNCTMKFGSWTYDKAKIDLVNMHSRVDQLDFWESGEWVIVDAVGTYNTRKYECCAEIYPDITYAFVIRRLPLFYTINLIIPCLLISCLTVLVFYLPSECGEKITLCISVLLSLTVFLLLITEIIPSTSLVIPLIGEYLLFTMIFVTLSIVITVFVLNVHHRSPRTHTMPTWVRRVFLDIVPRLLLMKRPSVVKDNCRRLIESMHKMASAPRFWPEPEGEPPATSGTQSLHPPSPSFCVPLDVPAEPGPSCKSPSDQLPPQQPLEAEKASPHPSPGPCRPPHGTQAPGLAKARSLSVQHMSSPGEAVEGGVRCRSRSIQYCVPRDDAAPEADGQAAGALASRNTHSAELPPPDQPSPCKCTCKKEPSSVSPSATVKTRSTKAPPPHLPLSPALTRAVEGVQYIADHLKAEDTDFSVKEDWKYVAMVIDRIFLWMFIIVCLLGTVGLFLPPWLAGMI
T2 sequence (P17787 whole entry): as the sequence (P17787 whole entry) above
T2 sequence (P32297 whole entry): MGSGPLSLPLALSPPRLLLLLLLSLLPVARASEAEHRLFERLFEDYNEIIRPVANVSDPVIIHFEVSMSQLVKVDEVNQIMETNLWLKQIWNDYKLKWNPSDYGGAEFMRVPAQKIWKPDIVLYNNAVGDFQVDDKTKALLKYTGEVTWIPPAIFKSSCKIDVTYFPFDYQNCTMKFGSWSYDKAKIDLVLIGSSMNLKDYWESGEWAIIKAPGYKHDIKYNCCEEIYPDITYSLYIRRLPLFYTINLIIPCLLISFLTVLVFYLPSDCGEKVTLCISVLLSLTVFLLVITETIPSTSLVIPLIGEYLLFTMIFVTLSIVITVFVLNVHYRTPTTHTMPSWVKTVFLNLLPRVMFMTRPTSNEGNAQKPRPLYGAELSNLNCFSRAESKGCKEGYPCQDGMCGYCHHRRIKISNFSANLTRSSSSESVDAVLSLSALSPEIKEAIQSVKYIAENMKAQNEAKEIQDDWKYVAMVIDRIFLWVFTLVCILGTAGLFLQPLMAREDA
T4 sequence (P30926 whole entry): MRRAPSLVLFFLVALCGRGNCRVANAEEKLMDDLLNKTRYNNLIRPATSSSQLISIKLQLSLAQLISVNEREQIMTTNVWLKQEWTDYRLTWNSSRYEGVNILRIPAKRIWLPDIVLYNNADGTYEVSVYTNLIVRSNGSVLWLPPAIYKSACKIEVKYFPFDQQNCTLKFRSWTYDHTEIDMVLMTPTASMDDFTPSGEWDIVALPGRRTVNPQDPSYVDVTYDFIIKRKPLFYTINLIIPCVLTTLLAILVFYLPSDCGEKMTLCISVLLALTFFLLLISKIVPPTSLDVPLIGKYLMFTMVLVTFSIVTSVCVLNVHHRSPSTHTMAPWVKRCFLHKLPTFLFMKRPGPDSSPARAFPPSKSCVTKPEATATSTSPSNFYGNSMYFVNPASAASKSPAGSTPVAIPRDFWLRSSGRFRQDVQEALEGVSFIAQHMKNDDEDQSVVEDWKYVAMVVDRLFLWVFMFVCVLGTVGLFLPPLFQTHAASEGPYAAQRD
T4 sequence (Q15822 whole entry): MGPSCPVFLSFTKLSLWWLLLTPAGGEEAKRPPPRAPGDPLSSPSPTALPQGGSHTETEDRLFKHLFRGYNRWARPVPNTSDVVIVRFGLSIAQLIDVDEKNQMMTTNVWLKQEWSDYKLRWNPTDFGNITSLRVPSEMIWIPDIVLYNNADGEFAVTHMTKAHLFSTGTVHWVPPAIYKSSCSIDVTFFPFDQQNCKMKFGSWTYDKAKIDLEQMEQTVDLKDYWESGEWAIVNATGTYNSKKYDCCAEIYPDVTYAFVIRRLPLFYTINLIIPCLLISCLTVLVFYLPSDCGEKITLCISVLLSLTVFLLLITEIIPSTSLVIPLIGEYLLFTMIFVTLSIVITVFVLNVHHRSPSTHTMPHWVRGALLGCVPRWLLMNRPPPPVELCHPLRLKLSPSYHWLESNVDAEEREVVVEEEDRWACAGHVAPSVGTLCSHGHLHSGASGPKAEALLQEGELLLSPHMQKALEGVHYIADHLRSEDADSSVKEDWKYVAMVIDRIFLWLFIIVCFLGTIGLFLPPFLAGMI
T1 sequence (P30926 whole entry): as the sequence (P30926 whole entry) above
T1 sequence (P43681 whole entry): as the sequence (P43681 whole entry) above
T6 sequence (P30926 whole entry): as the sequence (P30926 whole entry) above
T6 sequence (P32297 whole entry): as the sequence (P32297 whole entry) above
Chain of Neuronal acetylcholine receptor subunit alpha-7 (Rattus norvegicus) (Q05941 whole entry): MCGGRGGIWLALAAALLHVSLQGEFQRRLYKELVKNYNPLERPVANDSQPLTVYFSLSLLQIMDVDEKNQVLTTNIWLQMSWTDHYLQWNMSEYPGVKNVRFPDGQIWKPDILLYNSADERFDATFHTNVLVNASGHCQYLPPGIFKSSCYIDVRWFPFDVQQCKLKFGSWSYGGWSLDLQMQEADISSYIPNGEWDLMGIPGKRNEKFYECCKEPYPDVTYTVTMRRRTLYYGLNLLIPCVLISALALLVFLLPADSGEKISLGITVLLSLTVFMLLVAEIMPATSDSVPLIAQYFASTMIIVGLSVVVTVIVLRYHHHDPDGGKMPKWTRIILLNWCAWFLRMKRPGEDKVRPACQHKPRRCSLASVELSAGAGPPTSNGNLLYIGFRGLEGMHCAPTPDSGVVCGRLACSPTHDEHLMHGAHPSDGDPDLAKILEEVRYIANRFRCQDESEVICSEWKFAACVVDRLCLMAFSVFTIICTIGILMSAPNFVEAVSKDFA
Chain of Neuronal acetylcholine receptor; alpha2/beta2 (P17787 whole entry): as the sequence (P17787 whole entry) above
Chain of Neuronal acetylcholine receptor; alpha2/beta2 (Q15822 whole entry): as the sequence (Q15822 whole entry) above

For the compound `CN1CCC[C@H]1c1cccnc1` [NICOTINE], the Rmax was 74% and 97% in [1]; 100% and 85% and 108% in experiment [2]; 100% in [3]; 73% in experiment [6]; 100% in experiment [7]; 3.5% in experiment [8]. Moreover, in experiment [10], the Rmax came out at 114%. Moreover, the 50% effective concentration (EC50) in experiment [4] was determined as 5.5 µM; in [5], 5 µM; in experiment [9], 21 µM; in experiment [11] it was 80 µM.

For `C#Cc1cncc([C@@H]2CCCN2C)c1` [ALTINICLINE], the Rmax in experiment [2] stood at 26%; in experiment [6] it was 49%; in experiment [17] it was 52%; in [10], 49%. In addition, the concentration for a half-maximal effect (EC50) is > 10 µM in experiment [12]; 2 µM in experiment [13]; 10 µM in experiment [14]; 0.32 µM in experiment [15]; 3.2 µM in experiment [16]; 3.2 µM in experiment [18].

`CC[C@H](C)[C@H](N)C(=O)N[C@@H](CCCN=C(N)N)C(=O)N[C@@H](CC(=O)O)C(=O)N[C@@H](CCC(=O)O)C(=O)N[C@@H](CS)C(=O)N[C@@H](CS)C(=O)N[C@@H](CO)C(=O)N[C@@H](CC(N)=O)C(=O)N1CCC[C@H]1C(=O)N[C@@H](C)C(=O)N[C@@H](CS)C(=O)N[C@@H](CCCN=C(N)N)C(=O)N[C@H](C(=O)N[C@@H](CC(N)=O)C(=O)N[C@@H](CC(N)=O)C(=O)N1C[C@H](O)C[C@H]1C(=O)N[C@@H](Cc1c[nH]cn1)C(=O)N[C@H](C(=O)N[C@@H](CS)C(N)=O)C(C)C)C(C)C` (H-IRDECCSNPACRVNN[Hyp]HVC-NH2): the half-maximal inhibitory concentration (IC50) in experiment [19], in experiment [20], in experiment [21], in [22] and in experiment [23] was 0.005 µM in each case.

Turning to `CO[C@@H]1CC=C2CCN3CCC4=C(CC(=O)OC4)[C@@]23C1`, the half-inhibitory concentration (IC50) was 14 µM in [24]; 3.6 µM in experiment [27]; 43 µM and 240 µM in experiment [28]; 98 µM in experiment [30]. Moreover, the Concentration in experiment [25] worked out at 0.01 µM; in experiment [26] it was 2.7 µM; in experiment [29], 0.11 µM; in experiment [31], 20 µM.

`COc1cc2c3cc1Oc1cccc(c1O)C[C@@H]1c4c(cc(OC)c(O)c4Oc4ccc(cc4)CC3N(C)CC2)CC[N+]1(C)C` (stereo partly specified): the IC50 in [32] is 2.3 µM and 4 µM; in experiment [33] it was 0.23 µM; in [24], 2.2 µM; in experiment [27], 4.2 µM; in [28], 4.1 µM and 0.73 µM; in [30], 14.7 µM. The IC50 in [34] was found to be 2.4 µM. In addition, the Concentration in experiment [25] is 0.21 µM; in experiment [26] it was 7.6 µM; in experiment [29], 3.2 µM; in [31] it was 3.1 µM.

On to `C[C@H](NC(=O)[C@H](Cc1ccccc1)NC(=O)[C@H](CS)NC(=O)[C@@H]1CCCN1C(=O)[C@@H]1CCCN1C(=O)[C@H](Cc1ccc(O)cc1)NC(=O)[C@H](CO)NC(=O)[C@H](CS)NC(=O)[C@H](CS)NC(=O)CN)C(=O)N[C@H](C(=O)N[C@@H](CC(N)=O)C(=O)N1CCC[C@H]1C(=O)N[C@@H](CC(=O)O)C(=O)N[C@H](C=O)CS)[C@@H](C)O`, for which the IC50 in [35], in experiment [36], in [37], in experiment [38], in [39] and in [40] was 0.00075 µM in each case.
